Test [1] has as its target T1, Adrenergic β2 (Homo sapiens, UniProt P07550).
T1 construct: Adherent H292 cells were removed from tissue culture flasks; endogenous in cells; host or cells: H292 cells
Nature of the test: Adrenergic β2 mediated cAMP production in H292 cells (AlphaScreen cAMP detection). It counts as cell-based. Conditions: for β2 Int Act: Intrinsic Activity, fraction relative to the maximum activity determined for formoterol; for EC50: cAMP production, 60 min at room temperature, 300 μM rolipram, read-out: β2 pEC50 (converted). In a few lines: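 H292 cells, pretreated 10 min with rolipram (300 μM final), were exposed to agonist for 60 min at room temperature in HBSS/10 mM HEPES pH 7.4 with 1.6% DMSO. Lysate cAMP was read by AlphaScreen against a standard curve; four-parameter fits gave pEC50 and intrinsic activity as a fraction of the formoterol maximum.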
(cAMP levels reflect the balance of adenylyl cyclase and phosphodiesterase activity.)

The target in test [2] is T2, recombinant human α1D receptor (Homo sapiens, UniProt P25100).
T2 construct: expressed in transfected cells; host or cells: HEK293
T2 sequence (P25100 1-572): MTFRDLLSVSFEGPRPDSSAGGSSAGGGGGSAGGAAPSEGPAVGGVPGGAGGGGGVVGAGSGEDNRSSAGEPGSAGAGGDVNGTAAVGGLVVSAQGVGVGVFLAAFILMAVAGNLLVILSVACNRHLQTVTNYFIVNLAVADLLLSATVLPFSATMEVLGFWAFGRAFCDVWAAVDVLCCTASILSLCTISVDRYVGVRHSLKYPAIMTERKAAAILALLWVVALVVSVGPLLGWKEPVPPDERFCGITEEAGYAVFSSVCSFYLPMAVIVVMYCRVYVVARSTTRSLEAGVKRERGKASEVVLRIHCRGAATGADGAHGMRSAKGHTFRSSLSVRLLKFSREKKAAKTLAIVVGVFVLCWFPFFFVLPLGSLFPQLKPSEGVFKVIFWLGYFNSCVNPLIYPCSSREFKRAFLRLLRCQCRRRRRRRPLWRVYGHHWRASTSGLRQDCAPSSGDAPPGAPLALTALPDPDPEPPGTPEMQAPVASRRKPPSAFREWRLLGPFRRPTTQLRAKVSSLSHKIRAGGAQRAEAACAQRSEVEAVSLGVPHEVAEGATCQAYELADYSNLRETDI
Description: Adrenergic α1D selectivity binding assay ([3H]-prazosin). To be noted: inhibition of [3H]-prazosin binding, HEK293 membranes, read-out: α1 bind pIC50 (converted). In a few lines: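 HEK293 membranes expressing human α1D were incubated 2 h at room temperature with 0.3 nM [3H]-prazosin in HEPES/EDTA pH 7.4 buffer. Nonspecific binding was defined with 10 μM BMY7378. After filtration and scintillation counting, pIC50 was derived by four-parameter logistic fit.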

Counter-ions that a name gives are not always drawn.

This note sets out measurements from patent US8017602B2, “N-(2-(2-(5-hydroxy-3-oxo-3,4-dihydro-2H-benzo[b][1,4]oxazin-8-yl)ethylamino)ethyl)-3-(phenethoxy)propanamide derivatives, processes for their preparation, pharmaceutical compositions containing them and their use in therapy” (AstraZeneca AB, priority 2008, dated 2011).

T1 sequence (P07550 whole entry): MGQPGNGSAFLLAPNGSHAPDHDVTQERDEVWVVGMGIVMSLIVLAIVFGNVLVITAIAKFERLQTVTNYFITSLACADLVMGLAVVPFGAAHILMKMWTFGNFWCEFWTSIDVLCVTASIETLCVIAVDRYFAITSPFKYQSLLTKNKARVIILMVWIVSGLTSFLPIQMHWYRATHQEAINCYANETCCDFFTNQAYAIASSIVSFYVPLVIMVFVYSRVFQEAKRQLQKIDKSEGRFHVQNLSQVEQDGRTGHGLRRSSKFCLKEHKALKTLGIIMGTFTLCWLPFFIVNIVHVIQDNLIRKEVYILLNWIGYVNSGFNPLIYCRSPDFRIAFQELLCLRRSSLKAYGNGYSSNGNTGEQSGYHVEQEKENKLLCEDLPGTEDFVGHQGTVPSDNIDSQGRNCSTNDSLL

For the compound `Cc1nc(-c2cccc(CCOCCC(=O)N(CCNCCc3ccc(O)c4c3OCC(=O)N4)C3CCCCC3)c2)[nH]c1C` [Example 32, N-Cyclohexyl-3-(3-(4,5-dimethyl-1H-imidazol-2-yl)phenethoxy)-N-(2-(2-(5-hydroxy-3-oxo-3,4-dihydro-2H-benzo[b][1,4]oxazin-8-yl)ethylamino)ethyl)propanamide], in test [1], the “β2 Int Act” value came to 1.00 and the EC50 was 7.94 nM. For the same compound, in test [2], the IC50 was 631 nM.
The matching figures for `Cn1ccnc1-c1cccc(CCOCCC(=O)N(CCNCCc2ccc(O)c3c2OCC(=O)N3)C2CCCCC2)c1` [Example 33, N-Cyclohexyl-N-(2-(2-(5-hydroxy-3-oxo-3,4-dihydro-2H-benzo[b][1,4]oxazin-8-yl)ethylamino)ethyl)-3-(3-(1-methyl-1H-imidazol-2-yl)phenethoxy)propanamide]: 0.93, 12.6 nM and 2000 nM.
Taken in the same sequence, the figures for `Cc1nc(-c2cccc(CCOCCC(=O)N(CCNCCc3ccc(O)c4c3OCC(=O)N4)C3CCCCC3)c2)cn1C` [Example 35, N-Cyclohexyl-3-(3-(1,2-dimethyl-1H-imidazol-4-yl)phenethoxy)-N-(2-(2-(5-hydroxy-3-oxo-3,4-dihydro-2H-benzo[b][1,4]oxazin-8-yl)ethylamino)ethyl)propanamide Trifluoroacetic Acid Salt] were 1.03, 12.6 nM and 2000 nM.
Take `COCCn1cc(-c2cccc(CCOCCC(=O)N(CCNCCc3ccc(O)c4c3OCC(=O)N4)C3CCCCC3)c2)cn1` [Example 36, N-Cyclohexyl-N-(2-(2-(5-hydroxy-3-oxo-3,4-dihydro-2H-benzo[b][1,4]oxazin-8-yl)ethylamino)ethyl)-3-(3-(1-(2-methoxyethyl)-1H-pyrazol-4-yl)phenethoxy)propanamide Trifluoroacetic Acid Salt]: in test [1], the “β2 Int Act” value is listed as 1.05 and the EC50 is 20 nM. The IC50 in test [2] is 2510 nM.
Regarding `Cc1c(-c2cccc(CCOCCC(=O)N(CCNCCc3ccc(O)c4c3OCC(=O)N4)C3CCCCC3)c2)cnn1C` [Example 37, N-Cyclohexyl-3-(3-(1,5-dimethyl-1H-pyrazol-4-yl)phenethoxy)-N-(2-(2-(5-hydroxy-3-oxo-3,4-dihydro-2H-benzo[b][1,4]oxazin-8-yl)ethylamino)ethyl)propanamide Trifluoroacetic Acid Salt], in test [1], the “β2 Int Act” value is reported as 0.85 and the EC50 is 6.31 nM. Besides, the IC50 in test [2] is 1000 nM.
